The source of these data is paper PMC7377239, “Cardiovascular Effects of Polychlorinated Biphenyls and Their Major Metabolites” (Environmental Health Perspectives, 2020).

Like-named read-outs stand apart in the source and are kept apart here.

For assay [1], the system named is iCell endothelial cells (human iPSC-derived ECs). Put plainly: Tube formation (tubulogenesis) assay in iCell endothelial cells, 18 h. The class given is cell-based. Particulars: Homo sapiens, Endothelial cell, endothelial cells (endo), 18 hr. The method, boiled down: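 Tube formation was measured by calcein AM imaging after overnight compound exposure (37°C, 0.5% DMSO vehicle) of human iPSC-derived ECs, 7,500/well, on reduced-growth-factor Geltrex in starvation medium. Vehicle-normalized data fitted to four-parameter logistic; POD set at one vehicle SD; without response, 100 μM taken as NOAEL.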

The subject of the next assay is HUVECs. Nature of the assay: High-content imaging cytotoxicity in HUVECs, 24 h. The class given is cell-based, human. Particulars: Homo sapiens, HUVEC, 24 h, HUVEC, 24 hr. The method, boiled down: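 Point-of-departure values come from four-parameter logistic fits of vehicle-normalized (0.5% DMSO) imaging readouts, cutoff one SD of vehicle means, 100μM where no concentration–response. Cells: HUVEC monolayers, passages 1–5, treated 24 h at 37°C, 5% CO2, then Hoechst 33342/MitoTracker Orange/calcein AM stained, imaged at 10×.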

Where [2] appears, read: tube formation mtl, read-out: POD endo.mtl.18hr.
Setting [3] is: tube formation tlps, read-out: POD endo.tlps.18hr.
Where [4] appears, read: tube formation tta, read-out: POD endo.tta.18hr.
The mark [5] stands for this setting: tube formation ttl, read-out: POD endo.ttl.18hr.
Where [6] appears, read: cyto, read-out: POD huvec.cyto.24hr.
[7] abbreviates: mito, read-out: POD huvec.mito.24hr.
The mark [8] stands for this setting: mitoint, read-out: POD huvec.mitoint.24hr.
Setting [9] is: nma, read-out: POD huvec.nma.24hr.
Where [10] appears, read: tc, read-out: POD huvec.tc.24hr.

Regarding `COc1ccc(-c2ccc(Cl)cc2)cc1` [4'-OMe-PCB 3, 4′-methoxy-4-chlorobiphenyl], the minimal effective concentration in assay [1] (setting [2]) is 3.4 µM; in assay [1] (setting [3]) it was 12.3 µM; in assay [1] (setting [4]) it was 7.76 µM; in assay [1] (setting [5]), 7.16 µM; in the assay on HUVECs (setting [6]), 8.6 µM; with HUVECs (setting [7]), 5.97 µM. Also, the minimal effective concentration with HUVECs (setting [8]) is 32 µM; in the assay on HUVECs (setting [9]), 1.41 µM; with HUVECs (setting [10]) it was 8.6 µM.
With `Clc1ccc(-c2ccccc2)cc1` [PCB 3, 4-chlorobiphenyl], the minimal effective concentration (in assay [1] (setting [2]); in assay [1] (setting [3]); in assay [1] (setting [4]); in assay [1] (setting [5]); with HUVECs (setting [6]); in the assay on HUVECs (setting [7])) was 100 µM throughout. The minimal effective concentration in the assay with HUVECs (setting [8]), with HUVECs (setting [9]) and with HUVECs (setting [10]) was 100 µM each time.
